According to BindingDB's records for patent US20260062387 (Mitsubishi Tanabe Pharma, 2026):

Columns and labels:
Assay in all cases: SIK1, SIK2, and SIK3 inhibition test
[1] = molecular target: Serine/threonine-protein kinase SIK2 (Homo sapiens, UniProt Q9H0K1)
Procedure: (§1) The inhibitory activity of the compound for SIK1, SIK2, and SIK3 enzymes was assayed by measuring the amount of ADP, an enzyme reaction product, with ADP-Glo™ Max Assay (Promega). Enzymes, specifically, GST-tagged SIK1 (Carna Biosciences, Inc.), GST-tagged SIK2 (Carna Biosciences, Inc.), and GST-tagged SIK3 (SignalChem) were prepared in a reaction buffer (15 mM tris-hydrochloric acid buffer (pH 7.5), 0.001% Triton X-100, 0.01% BSA) so that the final concentration would be 20 nM, 3 nM, and 100 nM. Enzyme solutions were thus formed. In a reaction buffer, AMARA Peptide (SignalChem) as a substrate with a final concentration of 200 μM (SIK1, SIK2) or 100 μM (SIK3), ATP (Promega) with a final concentration of 1 mM, and magnesium chloride with a final concentration of 5 mM were prepared. Substrate solutions were thus formed. The enzyme solution, the substrate solution, and a DMSO solution of a concentration of the test compound were mixed together and reacted at room temperature for 2 hours. After the reaction, ADP-Glo™ Reagent (Promega) was added, and the reaction was performed at room temperature for 30 minutes. Subsequently, ADP-Glo™ Max Detection Reagent (Promega) was added, and the reaction was performed at room temperature for 30 minutes. The emission by the luciferase reaction was measured with PHERAstar FSX (BMG LABTECH).

[2] = molecular target: Serine/threonine-protein kinase SIK3 (Homo sapiens, UniProt Q9Y2K2)
Serine/threonine-protein kinase SIK3, sequence (Q9Y2K2 whole entry): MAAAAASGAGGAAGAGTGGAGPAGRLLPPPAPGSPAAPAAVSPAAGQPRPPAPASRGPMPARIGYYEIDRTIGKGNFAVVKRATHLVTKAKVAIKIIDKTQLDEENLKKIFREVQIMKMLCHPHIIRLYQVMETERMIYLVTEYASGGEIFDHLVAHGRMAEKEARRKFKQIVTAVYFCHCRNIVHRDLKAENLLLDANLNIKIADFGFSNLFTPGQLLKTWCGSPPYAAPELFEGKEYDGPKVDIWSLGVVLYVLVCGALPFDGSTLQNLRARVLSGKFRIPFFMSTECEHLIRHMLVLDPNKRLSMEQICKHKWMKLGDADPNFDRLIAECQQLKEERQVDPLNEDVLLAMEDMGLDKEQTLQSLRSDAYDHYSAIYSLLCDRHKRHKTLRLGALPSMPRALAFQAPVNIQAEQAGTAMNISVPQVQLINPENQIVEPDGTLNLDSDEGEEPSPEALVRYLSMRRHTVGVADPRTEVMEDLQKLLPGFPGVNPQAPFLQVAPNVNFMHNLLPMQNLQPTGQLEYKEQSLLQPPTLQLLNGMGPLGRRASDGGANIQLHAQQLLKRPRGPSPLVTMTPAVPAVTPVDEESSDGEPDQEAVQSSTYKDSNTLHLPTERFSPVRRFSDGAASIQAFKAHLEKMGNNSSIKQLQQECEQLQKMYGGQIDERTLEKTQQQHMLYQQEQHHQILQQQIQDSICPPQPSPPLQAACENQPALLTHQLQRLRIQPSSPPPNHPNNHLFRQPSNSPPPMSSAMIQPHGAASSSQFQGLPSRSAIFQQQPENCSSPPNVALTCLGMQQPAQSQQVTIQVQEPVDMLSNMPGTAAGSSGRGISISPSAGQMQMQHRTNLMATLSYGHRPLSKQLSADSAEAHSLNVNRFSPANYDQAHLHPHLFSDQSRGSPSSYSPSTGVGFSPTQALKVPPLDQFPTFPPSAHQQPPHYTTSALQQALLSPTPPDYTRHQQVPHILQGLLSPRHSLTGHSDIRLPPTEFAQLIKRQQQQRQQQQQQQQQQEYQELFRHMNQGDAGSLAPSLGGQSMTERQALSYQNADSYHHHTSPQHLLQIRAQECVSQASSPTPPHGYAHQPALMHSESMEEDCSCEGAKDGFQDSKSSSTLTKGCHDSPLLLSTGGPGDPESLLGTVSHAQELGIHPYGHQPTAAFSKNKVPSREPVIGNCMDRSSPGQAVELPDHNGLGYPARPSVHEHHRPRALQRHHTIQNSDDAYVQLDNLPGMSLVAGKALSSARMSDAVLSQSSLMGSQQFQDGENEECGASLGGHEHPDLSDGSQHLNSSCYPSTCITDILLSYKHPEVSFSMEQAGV
Procedure: as §1

[3] = molecular target: Serine/threonine-protein kinase SIK1 (Homo sapiens, UniProt P57059)
Serine/threonine-protein kinase SIK1, sequence (P57059 whole entry): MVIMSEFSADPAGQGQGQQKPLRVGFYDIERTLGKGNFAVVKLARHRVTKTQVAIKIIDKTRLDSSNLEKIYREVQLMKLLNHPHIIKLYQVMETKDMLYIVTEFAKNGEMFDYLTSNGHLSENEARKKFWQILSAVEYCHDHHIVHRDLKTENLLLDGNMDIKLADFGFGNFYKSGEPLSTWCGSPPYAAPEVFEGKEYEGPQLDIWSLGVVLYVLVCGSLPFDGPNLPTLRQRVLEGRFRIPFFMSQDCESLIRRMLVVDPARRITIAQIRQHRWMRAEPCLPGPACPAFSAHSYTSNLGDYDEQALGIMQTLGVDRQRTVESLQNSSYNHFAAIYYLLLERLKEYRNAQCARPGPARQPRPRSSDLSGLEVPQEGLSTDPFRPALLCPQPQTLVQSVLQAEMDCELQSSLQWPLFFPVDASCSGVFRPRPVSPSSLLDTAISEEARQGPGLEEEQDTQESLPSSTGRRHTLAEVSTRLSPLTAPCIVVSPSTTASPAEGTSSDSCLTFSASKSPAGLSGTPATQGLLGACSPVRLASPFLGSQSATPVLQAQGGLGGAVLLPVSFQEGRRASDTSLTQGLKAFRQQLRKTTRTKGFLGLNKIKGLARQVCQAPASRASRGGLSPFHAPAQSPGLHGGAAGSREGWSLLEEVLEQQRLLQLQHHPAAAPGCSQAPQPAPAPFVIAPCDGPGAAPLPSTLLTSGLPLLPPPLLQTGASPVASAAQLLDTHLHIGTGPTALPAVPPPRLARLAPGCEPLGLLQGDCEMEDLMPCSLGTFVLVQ
Procedure: as §1

Serine/threonine-protein kinase SIK2, sequence (Q9H0K1 whole entry): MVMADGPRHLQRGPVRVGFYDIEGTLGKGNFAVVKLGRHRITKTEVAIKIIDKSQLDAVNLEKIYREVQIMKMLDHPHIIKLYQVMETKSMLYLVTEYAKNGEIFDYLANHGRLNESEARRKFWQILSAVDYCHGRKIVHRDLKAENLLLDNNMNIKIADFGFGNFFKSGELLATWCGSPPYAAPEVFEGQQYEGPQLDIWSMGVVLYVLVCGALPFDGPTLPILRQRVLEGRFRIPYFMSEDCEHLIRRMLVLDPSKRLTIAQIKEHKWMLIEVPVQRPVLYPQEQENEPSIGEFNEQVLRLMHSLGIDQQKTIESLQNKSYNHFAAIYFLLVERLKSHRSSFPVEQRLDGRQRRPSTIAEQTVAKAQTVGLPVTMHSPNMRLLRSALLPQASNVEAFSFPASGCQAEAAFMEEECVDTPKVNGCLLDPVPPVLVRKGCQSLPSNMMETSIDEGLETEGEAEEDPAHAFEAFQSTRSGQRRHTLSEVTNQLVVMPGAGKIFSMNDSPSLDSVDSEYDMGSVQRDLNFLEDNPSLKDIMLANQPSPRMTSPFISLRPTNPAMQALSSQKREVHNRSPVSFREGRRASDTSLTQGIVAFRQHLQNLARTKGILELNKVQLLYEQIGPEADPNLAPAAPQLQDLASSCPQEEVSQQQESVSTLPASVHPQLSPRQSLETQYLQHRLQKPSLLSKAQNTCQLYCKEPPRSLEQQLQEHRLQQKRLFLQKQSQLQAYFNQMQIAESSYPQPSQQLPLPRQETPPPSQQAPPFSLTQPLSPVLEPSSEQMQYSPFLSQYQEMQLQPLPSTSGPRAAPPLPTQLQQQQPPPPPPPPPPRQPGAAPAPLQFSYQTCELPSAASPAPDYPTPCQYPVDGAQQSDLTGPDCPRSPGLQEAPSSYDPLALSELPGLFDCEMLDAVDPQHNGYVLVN

| IC50 [1] | IC50 [2] | IC50 [3] | Compound |
| --- | --- | --- | --- |
| 3.9 nM | 10.4 nM | 7.9 nM | COc1cc(-c2c3c(OC(F)F)cc(-c4cnn(C)c4)cc3nn2C)cc(OC(F)F)c1C(=O)N1CC(O)(C(F)(F)F)C1 [US20260062387, Example 62] |
| 9 nM | 15.8 nM | – | COc1cc(-c2c3c(OC(F)F)cc(-c4cn(C)nn4)cc3nn2C)cc(OC(F)F)c1C(=O)N1CC(O)(C(F)F)C1 [US20260062387, Example 64] |
| 5.6 nM | 3 nM | 9.6 nM | COc1cc(-c2c3c(C(F)F)cc(-c4cnn(CCC(=O)N(C)C)c4)cc3nn2C)cc(OC(F)F)c1C(=O)N1CC(O)(C(F)(F)F)C1 [US20260062387, Example 65] |
| 6.1 nM | 6.8 nM | 3 nM | COc1cc(-c2c3c(C(F)F)cc(-c4cnn(C[C@@H](C)O)c4)cc3nn2C)cc(OC(F)F)c1C(=O)N1CC(O)(C(F)(F)F)C1 [US20260062387, Example 71] |
| 5.6 nM | – | 3.9 nM | COc1cc(-c2c3c(C(F)F)cc(-c4cnn(C[C@H](C)O)c4)cc3nn2C)cc(OC(F)F)c1C(=O)N1CC(O)(C(F)(F)F)C1 [US20260062387, Example 72] |
